Converted amounts (≈) assume the structure as drawn. Read-outs that look alike come from different tables or passages of the source.
How the values were obtained:
P. mirabilis 57C0015 = assay: In vitro antibacterial MIC, P. mirabilis 57C0015; format: cell-based; conditions: Proteus mirabilis
Excerpt: (§1) The in vitro activity of the herein described compounds renders them useful for topical application in the form of ointments, creams and the like, or for sterilization purposes, e.g., sick-room utensils.
(§2) Table I compares the in vitro profile of 6-[D-2-phenyl-2-(amidinopropionamido)acetamido]penicillanic acid (PAP) with ampicillin (AMP) and carbenicillin (CAR).

E. coli 51A266 [1] = assay: In vivo protection against experimental E. coli infection in mice (Table II); conditions: doses 0.5, 4 and 24 hours after inoculation
Procedure: Table II presents the in vivo comparison data for the three compounds contained in Table I against several experimental infections in mice.
The values (% survivors) are obtained under standard conditions known to those skilled in the art. For the E. coli organism, the test compound is administered to the infected mice by a multiple dosing regimen in which the first dose is given 0.5 hour after inoculation and is repeated 4 and 24 hours later.

Kleb. penumoniae 53A015 = assay: In vitro antibacterial MIC, Kleb. penumoniae 53A015; format: cell-based; conditions: nutrient broth, Table I
Excerpt: as §1, §2

E. coli 51A002 = assay: In vitro antibacterial MIC, E. coli 51A002; format: cell-based; conditions: Escherichia coli, nutrient broth, Table I
Excerpt: as §1, §2

A. aerogenes 55A002 = assay: In vitro antibacterial MIC, A. aerogenes 55A002; format: cell-based; conditions: Klebsiella aerogenes, nutrient broth, Table I
Excerpt: as §1, §2

E. coli 51A266 [2] = assay: In vitro antibacterial MIC, E. coli 51A266; format: cell-based; conditions: Escherichia coli
Excerpt: as §1, §2

Ps. aeruginosa 52A490 = assay: In vitro antibacterial MIC, Ps. aeruginosa 52A490; format: cell-based; conditions: Pseudomonas aeruginosa
Excerpt: as §1, §2

Ps. aeruginosa 52A104 = assay: In vitro antibacterial MIC, Ps. aeruginosa 52A104; format: cell-based; conditions: Pseudomonas aeruginosa
Excerpt: as §1, §2

Kleb. pneumoniae 53A009 = assay: In vitro antibacterial MIC, Kleb. pneumoniae 53A009; format: cell-based; conditions: Klebsiella pneumoniae
Excerpt: as §1, §2

Ser. marcescens 63A001 = assay: In vitro antibacterial MIC, Ser. marcescens 63A001; format: cell-based; conditions: Serratia marcescens
Excerpt: as §1, §2

S. aureus 01A005 = assay: In vitro antibacterial MIC, S. aureus 01A005; format: cell-based; conditions: Staphylococcus aureus
Excerpt: as §1, §2

A. aerogenes = assay: In vitro antibacterial MIC, A. aerogenes; format: cell-based; conditions: Klebsiella aerogenes
Excerpt: as §1, §2

P. mirabiis 57C015 = assay: In vitro antibacterial MIC, P. mirabiis 57C015; format: cell-based
Excerpt: as §1, §2

E. coli 51A266 [3] = assay: In vivo protection against E. coli infection in mice (Table IV); conditions: doses 0.5, 4 and 24 hours after inoculation
Procedure: Table IV presents in vivo comparison data for the four compounds in Table III against E. coli infections in mice.
The values, reported as % survivors, are obtained under standard conditions familiar to those skilled in the art. The test compound is administered to the infected mice by a multiple dosing regimen in which the first dose is given 0.5 hour after inoculation and is repeated 4 and 24 hours later.

gram-negative bacteria = conditions: cited from earlier work
[4] = P. mirabilis 57C0015, nutrient broth, Table I, read-out: MIC

CC1(C)S[C@@H]2[C@H](NC(=O)[C@H](N)c3ccccc3)C(=O)N2[C@H]1C(=O)O [AMP, ampicillin]
MIC (P. mirabilis 57C0015; 57C0015): 1.56 µg/mL (≈ 4.46 µM)
% Protection (% survivors) (E. coli 51A266 [1]; PO, 50 mg./kg.): 80%
% Protection (% survivors) (E. coli 51A266 [1]; PO, 200 mg./kg.): 90%
% Protection (% survivors) (E. coli 51A266 [1]; SC, 50 mg./kg.): 80%
% Protection (% survivors) (E. coli 51A266 [1]; SC, 200 mg./kg.): 90%

CC1(C)S[C@@H]2[C@H](NC(=O)C(C(=O)O)c3ccccc3)C(=O)N2[C@H]1C(=O)O (some centres unmarked) [CAR, carbenicillin]
MIC (Kleb. penumoniae 53A015): > 200 µg/mL
MIC (P. mirabilis 57C0015; [4]): 1.25 µg/mL (≈ 3.3 µM)
% Protection (% survivors) (E. coli 51A266 [1]; PO, 50 mg./kg.): 10%
% Protection (% survivors) (E. coli 51A266 [1]; PO, 200 mg./kg.): 70%
% Protection (% survivors) (E. coli 51A266 [1]; SC, 50 mg./kg.): 90%
% Protection (% survivors) (E. coli 51A266 [1]; SC, 200 mg./kg.): 90%

CC1(C)S[C@@H]2[C@H](NC(=O)[C@H](NC(=O)CCC(=N)N)c3ccccc3)C(=O)N2[C@H]1C(=O)O [PAP, 6-[D-2-phenyl-2-(amidinopropionamido)acetamido]penicillanic acid]
MIC (E. coli 51A002): 200 µg/mL (≈ 447 µM)
MIC (Kleb. penumoniae 53A015): > 200 µg/mL
MIC (A. aerogenes 55A002): 100 µg/mL (≈ 223 µM)
MIC (P. mirabilis 57C0015; [4]): 6.25 µg/mL (≈ 14 µM)
% Protection (% survivors) (E. coli 51A266 [1]; PO, 50 mg./kg.): 20%
% Protection (% survivors) (E. coli 51A266 [1]; PO, 200 mg./kg.): 30%
% Protection (% survivors) (E. coli 51A266 [1]; SC, 50 mg./kg.): 80%
% Protection (% survivors) (E. coli 51A266 [1]; SC, 200 mg./kg.): 80%

CC1(C)S[C@@H]2[C@H](NC(=O)C(NC(=O)CNC(=N)c3ccc(Br)cc3)c3ccccc3)C(=O)N2[C@H]1C(=O)O (some centres unmarked) [X = Br]
MIC (E. coli 51A266 [2]): 0.39 µg/mL (≈ 0.663 µM)
MIC (Ps. aeruginosa 52A490): 6.25 µg/mL (≈ 10.6 µM)
MIC (Ps. aeruginosa 52A104): 25 µg/mL (≈ 42.5 µM)
MIC (Kleb. pneumoniae 53A009): 12.5 µg/mL (≈ 21.2 µM)
MIC (Ser. marcescens 63A001): 6.25 µg/mL (≈ 10.6 µM)
MIC (S. aureus 01A005): 0.39 µg/mL (≈ 0.663 µM)
MIC (A. aerogenes): 3.12 µg/mL (≈ 5.3 µM)
MIC (P. mirabiis 57C015): 3.12 µg/mL (≈ 5.3 µM)
% Survivors (E. coli 51A266 [3]; PO, 25 mg./kg.): 10%
% Survivors (E. coli 51A266 [3]; PO, 50 mg./kg.): 0%
% Survivors (E. coli 51A266 [3]; PO, 200 mg./kg.): 0%
% Survivors (E. coli 51A266 [3]; SC, 25 mg./kg.): 50%
% Survivors (E. coli 51A266 [3]; SC, 50 mg./kg.): 60%
% Survivors (E. coli 51A266 [3]; SC, 200 mg./kg.): 90%

CC1(C)S[C@@H]2[C@H](NC(=O)C(NC(=O)CNC(=N)c3ccc(Cl)cc3)c3ccccc3)C(=O)N2[C@H]1C(=O)O (some centres unmarked) [X = Cl]
MIC (E. coli 51A266 [2]): 0.78 µg/mL (≈ 1.43 µM)
MIC (Ps. aeruginosa 52A490): 12.5 µg/mL (≈ 23 µM)
MIC (Ps. aeruginosa 52A104): 25 µg/mL (≈ 46 µM)
MIC (Kleb. pneumoniae 53A009): 12.5 µg/mL (≈ 23 µM)
MIC (Ser. marcescens 63A001): 6.25 µg/mL (≈ 11.5 µM)
MIC (S. aureus 01A005): 0.39 µg/mL (≈ 0.717 µM)
MIC (A. aerogenes): 3.12 µg/mL (≈ 5.73 µM)
MIC (P. mirabiis 57C015): 3.12 µg/mL (≈ 5.73 µM)
% Survivors (E. coli 51A266 [3]; PO, 25 mg./kg.): 0%
% Survivors (E. coli 51A266 [3]; PO, 50 mg./kg.): 0%
% Survivors (E. coli 51A266 [3]; PO, 200 mg./kg.): 0%
% Survivors (E. coli 51A266 [3]; SC, 25 mg./kg.): 50%
% Survivors (E. coli 51A266 [3]; SC, 50 mg./kg.): 60%
% Survivors (E. coli 51A266 [3]; SC, 200 mg./kg.): 70%

CC1(C)S[C@@H]2[C@H](NC(=O)C(NC(=O)CNC(=N)c3ccc(F)cc3)c3ccccc3)C(=O)N2[C@H]1C(=O)O (some centres unmarked) [X = F]
MIC (E. coli 51A266 [2]): 1.56 µg/mL (≈ 2.96 µM)
MIC (Ps. aeruginosa 52A490): 3.12 µg/mL (≈ 5.91 µM)
MIC (Ps. aeruginosa 52A104): 12.5 µg/mL (≈ 23.7 µM)
MIC (Kleb. pneumoniae 53A009): 25 µg/mL (≈ 47.4 µM)
MIC (Ser. marcescens 63A001): 6.25 µg/mL (≈ 11.8 µM)
MIC (S. aureus 01A005): 0.39 µg/mL (≈ 0.739 µM)
MIC (A. aerogenes): 25 µg/mL (≈ 47.4 µM)
MIC (P. mirabiis 57C015): 3.12 µg/mL (≈ 5.91 µM)
% Survivors (E. coli 51A266 [3]; PO, 25 mg./kg.): 10%
% Survivors (E. coli 51A266 [3]; PO, 50 mg./kg.): 0%
% Survivors (E. coli 51A266 [3]; PO, 200 mg./kg.): 10%
% Survivors (E. coli 51A266 [3]; SC, 25 mg./kg.): 50%
% Survivors (E. coli 51A266 [3]; SC, 50 mg./kg.): 70%
% Survivors (E. coli 51A266 [3]; SC, 200 mg./kg.): 90%

CC1(C)S[C@@H]2[C@H](NC(=O)C(NC(=O)CNC(=N)c3ccccc3)c3ccccc3)C(=O)N2[C@H]1C(=O)O (some centres unmarked) [X = H]
MIC (E. coli 51A266 [2]): 12.5 µg/mL (≈ 24.5 µM)
MIC (Ps. aeruginosa 52A490): 12.5 µg/mL (≈ 24.5 µM)
MIC (Ps. aeruginosa 52A104): 25 µg/mL (≈ 49.1 µM)
MIC (Kleb. pneumoniae 53A009): 100 µg/mL (≈ 196 µM)
MIC (Ser. marcescens 63A001): 12.5 µg/mL (≈ 24.5 µM)
MIC (S. aureus 01A005): 0.78 µg/mL (≈ 1.53 µM)
MIC (A. aerogenes): 25 µg/mL (≈ 49.1 µM)
MIC (P. mirabiis 57C015): 12.5 µg/mL (≈ 24.5 µM)
% Survivors (E. coli 51A266 [3]; PO, 25 mg./kg.): 0%
% Survivors (E. coli 51A266 [3]; PO, 50 mg./kg.): 0%
% Survivors (E. coli 51A266 [3]; PO, 200 mg./kg.): 10%
% Survivors (E. coli 51A266 [3]; SC, 25 mg./kg.): 10%
% Survivors (E. coli 51A266 [3]; SC, 50 mg./kg.): 70%
% Survivors (E. coli 51A266 [3]; SC, 200 mg./kg.): 90%

CC1(C)S[C@@H]2[C@H](NC(=O)C(C(=O)O)c3ccccc3)C(=O)N2[C@H]1C(=O)O (stereo partly drawn) [α-Carboxybenzylpenicillin]
utility via oral administration (in words) (gram-negative bacteria; oral): limited utility via oral administration
efficacy against gram-negative bacteria (in words) (gram-negative bacteria; parenteral route): greater efficacy against gram-negative bacteria
